Source: patent US20250235547A1, “ANTIBODY-DRUG CONJUGATE” (UBE Corporation, priority 2022, published 2025)
Numbered stars: 1 amine (or outer) side, 2 acyl side, 3 side chain; on linkers, the order of the positions; unused ones are H or OH. Square brackets hold non-standard residues; d marks the D form. Peptide text beside a SMILES is read from it. * marks the point of attachment. X4 = COC(=O)C1OC(O[C@@H](c2ccccc2)[C@@H](C)N*)C(OC(C)=O)C(OC(C)=O)C1OC(C)=O; Dolaproine = CO[C@@H]([C@@H]1CCCN1)[C@@H](C)C(=O)O; Hexanoyl(6-maleimido) = O=C1C=CC(=O)N1CCCCCC(=O)*; Propanoyl(3-maleimido) = O=C1C=CC(=O)N1CCC(=O)*; Dil = CC[C@H](C)[C@H](NC)[C@@H](CC(=O)O)OC; X3 = C[C@@H](N*)[C@@H](OP(=O)(O)O)c1ccccc1; PABC = O=C(OCc1ccc(N[*:1])cc1)[*:2]; X1 = C[C@@H](N*)[C@@H](O)c1ccccc1; hSer(lactone) = O=C1OCC[C@@H]1N*; Cit = NC(=O)NCCC[C@H](N)C(=O)O; PEG4 = NCCOCCOCCOCCOCCC(=O)O; NMeV = CN[C@H](C(=O)O)C(C)C

Experiments:
[1] = Retention time in HPLC of reactive precursor (index of hydrophilicity); format: physicochemical; details: BEH C18, 0.1% formic acid water/acetonitrile gradient, 40° C.
Experimental: As an index of hydrophilicity of the reactive precursor (Compound (III)), the retention time (RT) in HPLC analysis was measured, and compared.

[2] = molecular target: T1, porcine tubulin (Sus scrofa, UniProt P02550+P02554); experiment: Tubulin polymerization inhibition test; format: biochemical; details: fluorescence, 37° C., 60 minutes
T1 construct: purchased Cytoskeleton, Inc. BK011P
T1 sequence (P02554 whole entry): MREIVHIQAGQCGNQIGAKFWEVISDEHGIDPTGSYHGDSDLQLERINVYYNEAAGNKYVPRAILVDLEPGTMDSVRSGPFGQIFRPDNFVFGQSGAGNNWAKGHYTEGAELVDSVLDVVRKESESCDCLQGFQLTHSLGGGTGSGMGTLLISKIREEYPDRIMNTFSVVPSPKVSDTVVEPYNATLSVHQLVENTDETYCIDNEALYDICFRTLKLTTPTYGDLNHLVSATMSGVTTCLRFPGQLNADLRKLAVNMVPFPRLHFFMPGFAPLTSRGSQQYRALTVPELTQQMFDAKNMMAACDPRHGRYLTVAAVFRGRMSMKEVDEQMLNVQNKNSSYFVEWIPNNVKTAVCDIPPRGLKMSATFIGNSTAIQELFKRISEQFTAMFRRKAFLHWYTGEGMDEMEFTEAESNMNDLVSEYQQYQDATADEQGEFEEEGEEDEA
T1 sequence (P02550 whole entry): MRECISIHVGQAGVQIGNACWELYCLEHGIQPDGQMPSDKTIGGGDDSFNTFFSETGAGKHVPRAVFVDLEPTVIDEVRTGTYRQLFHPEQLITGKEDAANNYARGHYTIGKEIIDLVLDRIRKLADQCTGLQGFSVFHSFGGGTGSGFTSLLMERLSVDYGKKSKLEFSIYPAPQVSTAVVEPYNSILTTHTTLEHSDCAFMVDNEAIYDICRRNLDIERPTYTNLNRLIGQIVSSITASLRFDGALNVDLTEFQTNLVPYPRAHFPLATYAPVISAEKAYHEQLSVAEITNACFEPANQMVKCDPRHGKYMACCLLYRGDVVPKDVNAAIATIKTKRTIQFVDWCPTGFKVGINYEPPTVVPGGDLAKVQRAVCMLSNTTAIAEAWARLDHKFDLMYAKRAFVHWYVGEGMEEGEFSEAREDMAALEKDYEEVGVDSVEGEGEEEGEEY
Experimental: For measuring the tubulin polymerization inhibitory action, Tubulin Polymerization Assay Kit (manufactured by Cytoskeleton, Inc., BK011P) was used. A PIPES buffer containing porcine tubulin, GTP, MgCl2, EGTA, Glycerol, and a fluorescent reporter was prepared under ice-cooling as a reaction solution. The reaction solution was ice-cooled until it was used. A test compound solution was prepared by an aqueous solution containing 1.5% DMSO, and added to a 96 well plate (manufactured by Corning Inc., 3686) at 5 μL/well. The reaction solution was added thereto at 50 μL/well, the plate was placed in a microplate reader (FlexStation 3, manufactured by Molecular Device, LLC) in which the internal temperature was set to 37° C. in advance, and the fluorescence intensity measurement (excitation wavelength: 360 nm, detection wavelength: 420 nm) of each well was started. The fluorescence intensity was measured once every minute, and the measurement was continued for 60 minutes.
The tubulin polymerization inhibition rate (%) was calculated by the following equation.
Amount of fluorescence intensity increase: (average fluorescence intensity after 51 to 60 minutes from measurement start)−(average fluorescence intensity after 1 to 6 minutes from measurement start)

Question: Which “Retention time in HPLC measurement” value [1] does the source give for `CC[C@H](C)[C@@H]([C@@H](CC(=O)N1CCC[C@H]1C(OC)[C@@H](C)C(=O)N[C@H](C)[C@@H](O)c1ccccc1)OC)N(C)C(=O)[C@@H](NC(=O)[C@H](C(C)C)N(C)C(=O)OCc1ccc(NC(=O)[C@H](CCCNC(N)=O)NC(=O)[C@@H](NC(=O)[C@H](CC(=O)NC2CCOC2=O)NC(=O)[C@H](CC(=O)N[C@H]2CCOC2=O)NC(=O)[C@H](CC(=O)N[C@H]2CCOC2=O)NC(=O)[C@H](CC(=O)N[C@H]2CCOC2=O)NC(=O)[C@H](CC(=O)NC2CCOC2=O)NC(=O)CCOCCOCCOCCOCCNC(=O)CCN2C(=O)C=CC2=O)C(C)C)cc1)C(C)C` (stereo in doubt) [Reference Example 6] here?
Answer: 1.09 min

Question: For `CC[C@H](C)[C@@H]([C@@H](CC(=O)N1CCC[C@H]1[C@H](OC)[C@@H](C)C(=O)N[C@H](C)[C@@H](O)c1ccccc1)OC)N(C)C(=O)[C@@H](NC(=O)[C@H](C(C)C)N(C)Cc1cc([N+](=O)[O-])ccc1F)C(C)C` [Example U-008], which IC50 [2] is on record?
Answer: ≤ 3 µM

Question: Which IC50 [2] does the source give for `CC[C@H](C)[C@@H]([C@@H](CC(=O)N1CCC[C@H]1[C@H](OC)[C@@H](C)C(=O)N[C@H](C)[C@@H](OC1OC(C(=O)OC)C(OC(C)=O)C(OC(C)=O)C1OC(C)=O)c1ccccc1)OC)N(C)C(=O)[C@@H](NC(=O)[C@@H](NC)C(C)C)C(C)C` (some centres unmarked) [Example U-014] (H-[NMeV]V[Dil][Dolaproine]-X4) here?
Answer: ≤ 3 µM

Question: Which “Retention time in HPLC measurement” value [1] does the source give for `CC[C@H](C)[C@@H]([C@@H](CC(=O)N1CCC[C@H]1[C@H](OC)[C@@H](C)C(=O)N[C@H](C)[C@@H](O)c1ccccc1)OC)N(C)C(=O)[C@@H](NC(=O)[C@H](C(C)C)N(C)C(=O)OCc1ccc(NC(=O)[C@H](CCCNC(N)=O)NC(=O)[C@@H](NC(=O)CCCCCN2C(=O)C=CC2=O)C(C)C)cc1)C(C)C` [MC-Val-Cit-PAB-MMAE, reference compound] ({Hexanoyl(6-maleimido)}-V[Cit][PABC][NMeV]V[Dil][Dolaproine]-X1) here?
Answer: 1.24 min

Question: Which “Retention time in HPLC measurement” value [1] does the source give for `C=C1C[C@@H]2CC[C@@]34C[C@H]5O[C@H]6[C@@H](O3)[C@H]3O[C@H](CC[C@@H]3O[C@H]6[C@H]5O4)CC(=O)C[C@@H]3[C@@H](OC)[C@@H](C[C@H](O)CNC(=O)OCc4ccc(NC(=O)[C@H](CCCNC(N)=O)NC(=O)[C@@H](NC(=O)CCOCCOCCN5C(=O)C=CC5=O)C(C)C)cc4)O[C@H]3C[C@H]3O[C@@H](CC[C@@H]1O2)C[C@@H](C)C3=C` [Mal-PEG2-Val-Cit-PAB-Eribulin, reference compound] here?
Answer: 1.19 min

Question: Which “Retention time in HPLC measurement” value [1] does the source give for `CC[C@H](C)[C@@H]([C@@H](CC(=O)N1CCC[C@H]1[C@H](OC)[C@@H](C)C(=O)N[C@H](C)[C@@H](OP(=O)(O)O)c1ccccc1)OC)N(C)C(=O)[C@@H](NC(=O)[C@H](C(C)C)N(C)C(=O)OCc1ccc(NC(=O)[C@H](CCCNC(N)=O)NC(=O)[C@@H](NC(=O)[C@H](CC(=O)N[C@H]2CCOC2=O)NC(=O)CCOCCOCCOCCOCCNC(=O)CCN2C(=O)C=CC2=O)C(C)C)cc1)C(C)C` [Reference Example 2] ({Propanoyl(3-maleimido)-PEG4}-D(hSer(lactone))V[Cit][PABC][NMeV]V[Dil][Dolaproine]-X3) here?
Answer: 0.96 min

Question: With `CC[C@H](C)[C@@H]([C@@H](CC(=O)N1CCC[C@H]1[C@H](OC)[C@@H](C)C(=O)N[C@H](C)[C@@H](OP(=O)(O)OCc1ccc(NC(=O)[C@H](CCCNC(N)=O)NC(=O)[C@@H](NC(=O)[C@H](CC(=O)N[C@H]2CCOC2=O)NC(=O)CCOCCOCCOCCOCCNC(=O)[C@H](CNC(=O)CCP(=O)(O)O)N2C(=O)C=CC2=O)C(C)C)cc1)c1ccccc1)OC)N(C)C(=O)[C@@H](NC(=O)[C@H](C(C)C)N(C)C)C(C)C` [Reference Example 3] as the compound, how does the “Retention time in HPLC measurement” value [1] read?
Answer: 0.70 min

Question: Which “Retention time in HPLC measurement” value [1] does the source give for `C=C1C[C@@H]2CC[C@@]34C[C@H]5O[C@H]6[C@@H](O3)[C@H]3O[C@H](CC[C@@H]3O[C@H]6[C@H]5O4)CC(=O)C[C@@H]3[C@@H](OC)[C@@H](C[C@@H](CCNC(=O)OCc4ccc(NC(=O)[C@H](CCCNC(N)=O)NC(=O)[C@@H](NC(=O)[C@H](CC(=O)N[C@H]5CCOC5=O)NC(=O)CCOCCOCCOCCOCCNC(=O)[C@H](CNC(=O)CCP(=O)(O)O)N5C(=O)C=CC5=O)C(C)C)cc4)OP(=O)(O)O)O[C@H]3C[C@H]3O[C@@H](CC[C@@H]1O2)C[C@@H](C)C3=C` [Reference Example 26] here?
Answer: 0.91 min
